Measured values as given in the NIST ThermoML archive (doi:10.1016/j.tca.2009.07.002).

Assay: xn = mol fraction of the nth substance listed
Settings: 101 kPa, Liquid, Vibrating tube method

CCCCO [butan-1-ol] + CCCCCCC
mass density [kg/m3]
Settings | 288.15 K | 293.15 K | 298.15 K | 303.15 K | 308.15 K | 313.15 K | 318.15 K | 323.15 K
x1 = 0.0691 | 692.997 | 688.732 | 684.439 | 680.112 | 675.754 | 671.356 | 666.921 | 662.457
x1 = 0.0999 | 695.43 | 691.164 | 686.867 | 682.541 | 678.179 | 673.778 | 669.334 | 664.851
x1 = 0.1495 | 699.575 | 695.309 | 691.013 | 686.688 | 682.323 | 677.919 | 673.469 | 668.978
x1 = 0.1701 | 701.352 | 697.089 | 692.795 | 688.469 | 684.105 | 679.699 | 675.246 | 670.749
x1 = 0.2 | 703.971 | 699.708 | 695.42 | 691.091 | 686.729 | 682.324 | 677.872 | 673.376
x1 = 0.2497 | 708.55 | 704.296 | 700.016 | 695.692 | 691.331 | 686.93 | 682.482 | 677.987
x1 = 0.2507 | 708.652 | 704.392 | 700.109 | 695.793 | 691.434 | 687.035 | 682.589 | 678.099
x1 = 0.2999 | 713.405 | 709.158 | 704.88 | 700.571 | 696.222 | 691.828 | 687.391 | 682.909
x1 = 0.3501 | 718.522 | 714.283 | 710.016 | 705.715 | 701.373 | 696.989 | 692.557 | 688.076
x1 = 0.3998 | 723.818 | 719.595 | 715.341 | 711.055 | 706.726 | 702.355 | 697.935 | 693.471
x1 = 0.4497 | 729.369 | 725.163 | 720.925 | 716.653 | 712.34 | 707.984 | 703.577 | 699.118
x1 = 0.4999 | 735.288 | 731.11 | 726.892 | 722.64 | 718.343 | 714.006 | 709.618 | 705.176
x1 = 0.5516 | 741.637 | 737.484 | 733.291 | 729.062 | 724.793 | 720.478 | 716.114 | 711.695
x1 = 0.6497 | 754.667 | 750.57 | 746.442 | 742.276 | 738.07 | 733.819 | 729.516 | 725.167
x1 = 0.6999 | 761.833 | 757.773 | 753.681 | 749.559 | 745.39 | 741.178 | 736.918 | 732.609
x1 = 0.7502 | 769.372 | 765.348 | 761.298 | 757.214 | 753.09 | 748.919 | 744.697 | 740.419
x1 = 0.7999 | 777.249 | 773.267 | 769.263 | 765.22 | 761.14 | 757.016 | 752.839 | 748.617
x1 = 0.8498 | 785.51 | 781.573 | 777.613 | 773.62 | 769.591 | 765.519 | 761.397 | 757.222
x1 = 0.9006 | 794.437 | 790.548 | 786.635 | 782.692 | 778.716 | 774.698 | 770.631 | 766.522
x1 = 1 | 813.373 | 809.573 | 805.762 | 801.923 | 798.053 | 794.147 | 790.231 | 786.238

NC1CCCCC1 [cyclohexylamine] + CCCCCCC
mass density [kg/m3]
Settings | 288.15 K | 293.15 K | 298.15 K | 303.15 K | 308.15 K | 313.15 K | 318.15 K | 323.15 K
x1 = 0.0501 | 694.788 | 690.573 | 686.334 | 682.072 | 677.784 | 673.467 | 669.12 | 664.739
x1 = 0.1002 | 701.818 | 697.601 | 693.36 | 689.097 | 684.805 | 680.49 | 676.146 | 671.776
x1 = 0.1501 | 709.079 | 704.855 | 700.609 | 696.341 | 692.046 | 687.73 | 683.386 | 679.015
x1 = 0.2305 | 721.227 | 716.988 | 712.729 | 708.452 | 704.15 | 699.827 | 695.479 | 691.106
x1 = 0.3004 | 732.296 | 728.038 | 723.765 | 719.477 | 715.17 | 710.839 | 706.489 | 702.117
x1 = 0.401 | 749.067 | 744.783 | 740.484 | 736.173 | 731.847 | 727.504 | 723.139 | 718.756
x1 = 0.4497 | 757.546 | 753.244 | 748.933 | 744.614 | 740.28 | 735.927 | 731.554 | 727.16
x1 = 0.5597 | 777.524 | 773.195 | 768.854 | 764.509 | 760.149 | 755.773 | 751.384 | 746.981
x1 = 0.6001 | 785.155 | 780.814 | 776.463 | 772.102 | 767.732 | 763.352 | 758.953 | 754.544
x1 = 0.6498 | 794.839 | 790.479 | 786.113 | 781.744 | 777.362 | 772.968 | 768.563 | 764.139
x1 = 0.6994 | 804.717 | 800.344 | 795.962 | 791.575 | 787.181 | 782.776 | 778.36 | 773.935
x1 = 0.7999 | 825.611 | 821.199 | 816.783 | 812.36 | 807.934 | 803.499 | 799.055 | 794.605
x1 = 0.8992 | 847.523 | 843.061 | 838.598 | 834.132 | 829.662 | 825.189 | 820.71 | 816.229
x1 = 1 | 871.29 | 866.747 | 862.207 | 857.671 | 853.138 | 848.607 | 844.073 | 839.547

NC1CCCCC1 [cyclohexylamine] + CCCCO
mass density [kg/m3]
Settings | 288.15 K | 293.15 K | 298.15 K | 303.15 K | 308.15 K | 313.15 K | 318.15 K | 323.15 K
x2 = 0 | 871.29 | 866.747 | 862.207 | 857.671 | 853.138 | 848.607 | 844.073 | 839.547
x2 = 0.0499 | 870.402 | 865.907 | 861.409 | 856.914 | 852.415 | 847.912 | 843.406 | 838.847
x2 = 0.1019 | 869.284 | 864.828 | 860.372 | 855.914 | 851.45 | 846.979 | 842.499 | 838.018
x2 = 0.1499 | 868.221 | 863.8 | 859.375 | 854.945 | 850.509 | 846.063 | 841.605 | 837.144
x2 = 0.1997 | 867.037 | 862.648 | 858.251 | 853.85 | 849.438 | 845.013 | 840.578 | 836.136
x2 = 0.2995 | 864.139 | 859.8 | 855.453 | 851.095 | 846.722 | 842.337 | 837.935 | 833.516
x2 = 0.4 | 860.506 | 856.206 | 851.899 | 847.581 | 843.244 | 838.892 | 834.521 | 830.136
x2 = 0.4994 | 855.958 | 851.708 | 847.444 | 843.167 | 838.874 | 834.561 | 830.229 | 825.872
x2 = 0.6006 | 850.147 | 845.964 | 841.767 | 837.554 | 833.322 | 829.067 | 824.783 | 820.478
x2 = 0.6977 | 843.134 | 839.036 | 834.924 | 830.791 | 826.637 | 822.458 | 818.247 | 814.01
x2 = 0.7497 | 838.964 | 834.921 | 830.861 | 826.78 | 822.671 | 818.541 | 814.376 | 810.181
x2 = 0.7984 | 834.505 | 830.511 | 826.498 | 822.464 | 818.404 | 814.315 | 810.191 | 806.034
x2 = 0.85 | 829.604 | 825.664 | 821.703 | 817.72 | 813.708 | 809.66 | 805.587 | 801.472
x2 = 0.8993 | 824.498 | 820.606 | 816.697 | 812.762 | 808.799 | 804.804 | 800.769 | 796.696
x2 = 0.9508 | 819.064 | 815.223 | 811.359 | 807.471 | 803.552 | 799.601 | 795.606 | 791.569
